# From ChEMBL document CHEMBL1121512, “1-[Ethoxyamino)methyl]-1,3,4,5-tetrahydro-7,8-dimethoxy-2-benzoxepins: a new class of antianaphylactic agents” (1980)
# How the values were obtained:
# Assay type in all cases: functional
# Rattus norvegicus [1] = assay: % inhibition against anaphylactic response in rat at dose 50 mg/kg administered orally after 120 min; conditions: 2 h, route oral
# Rattus norvegicus [2] = assay: % inhibition against anaphylactic response in rat at dose 50 mg/kg administered orally after 60 min; conditions: 1 h, route oral
# Rattus norvegicus [3] = assay: % inhibition against anaphylactic response in rat at dose 10 mg/kg administered orally after 60 min; conditions: 1 h, route oral
structure (smiles),measurement,setting,value
COc1cc2c(cc1OC)C(COCCN1CCN(c3ccc(F)cc3)CC1)OCCC2 (stereo unspecified),inhibition in vivo at 50 mg/kg,Rattus norvegicus [1],0%
same,inhibition in vivo at 50 mg/kg,Rattus norvegicus [2],52%
COc1cc2c(cc1OC)C(COCCN1CCN(c3ccccc3OC)CC1)OCCC2 (stereo unspecified),inhibition in vivo at 50 mg/kg,Rattus norvegicus [1],20%
same,inhibition in vivo at 50 mg/kg,Rattus norvegicus [2],100%
COc1cc2c(cc1OC)C(COCCN1CCN(c3ccccn3)CC1)OCCC2 (stereo unspecified),inhibition in vivo at 50 mg/kg,Rattus norvegicus [1],35%
same,inhibition in vivo at 50 mg/kg,Rattus norvegicus [2],94%
COc1cc2c(cc1OC)C(COCCN1CCN(C)CC1)OCCC2 (stereo unspecified),inhibition in vivo at 50 mg/kg,Rattus norvegicus [1],0%
same,inhibition in vivo at 50 mg/kg,Rattus norvegicus [2],0%
COc1cc2c(cc1OC)C(COCCNCCO)OCCC2 (stereo unspecified),inhibition in vivo at 50 mg/kg,Rattus norvegicus [1],0%
same,inhibition in vivo at 50 mg/kg,Rattus norvegicus [2],0%
O=C(O)c1cc(=O)c2c(OCC(O)COc3cccc4oc(C(=O)O)cc(=O)c34)cccc2o1 [CROMOLYN SODIUM],inhibition in vivo at 10 mg/kg,Rattus norvegicus [3],100%
